Test [1] deals with PpPII (Porphyra purpurea, UniProt P51254). In words: ITC binding of small effector molecules to red algal PpPII. On the procedure:
(§1) To gain additional insights into the ligand binding properties of PpPII in comparison to cyanobacterial and chloroplastid PII proteins, isothermal titration calorimetry (ITC) experiments were performed using highly purified Strep-tagged or His-tagged recombinant PpPII, SyPII, CrPII, and PhyscoPII proteins (Supplementary Fig. S1) with different protein/ligand/ concentrations to determine the best fitting conditions of the binding model. The titration experiments were repeated with different protein preparations to confirm the reproducibility of the results. The raw isothermal data were fitted into one-binding site as well as three-sequential binding sites to define the best fitting model. Fitting using a one binding site model states an average Kd value for all available binding sites and the mean of the stoichiometry of bound ligands.
(§2) The ITC experiments were done using a VP-ITC microcalorimeter (MicroCal, LCC). All details for determination of binding constants for small effector molecules using ITC are fully described in the supplementary information. Heat isotherms of the dilution of the ligand in the cell buffer were collected in a blank run for each experiment in the absence of protein. The binding isotherms were calculated from received data and fitted to one-site and three-sequential binding sites models using the MicroCal ORIGIN software (Northampton) as described. All titrations were performed in duplicates with different purification batches of recombinant PII proteins. The association binding constant (Ka) was generated from the software by de-convolution and curve fitting. For calculation of dissociation constant (Kd), the Ka value was inversed.
(§3) Supplementary Information […]
(§4) Determination of Binding Constants for Small Effector Molecules using Isothermal […]
(§5) The binding of the small effector molecules to the recombinant PII proteins was tested using isothermal titration calarmity (ITC); VP-ITC microcalorimeter (MicroCal). All titrations were performed on 20°C using […] injection syringe with injection 6 µl or 10 µl of the tested ligands for 45 or 29 times, respectively into the cell (1.4 ml) with continuous stirring at 155 rpm. All tested ligands were high grade, prepared freshly in the same buffer of the protein and purchased from Sigma-Aldrich. Heat isotherms for the dilution of the ligand in the cell buffer were collected in a blank run in the absence of protein. The received calorimetric data were analyzed using MicroCal Origin software and fitted into one-site and three-sequential binding sites models, as indicated by the manufacture for calculation of binding isotherms9. For data reproducibility, the titrations were performed in duplicates with different purification batches of recombinant PII proteins. The association binding constant (Ka) was generated from the software by de-convolution and curve fitting. For calculation of dissociation constant (Kd), the Ka value was inversed.
For determination the binding isotherms of red algal PpPII protein, a buffer system composed of […]
used. For determination ATP and ADP binding isotherms upon the binding to PpPII protein, His- […]
against 2 mM ATP or 2 mM ADP. For determination of ATP and ADP binding isotherms in […]
concentration) was titrated against 0.5 mM of ATP or 1 mM ADP, respectively. However, for […]
of 1 mM of ATP or 1 mM ADP. […]

Test [2] deals with T1, SyPII (Synechococcus elongatus, UniProt P0A3F4).
T1 construct: Strep-tag; made in house
As to conditions: cited from earlier work.

Test [3] concerns the target PhyscoPII. In words: ITC binding of small effector molecules to plant-moss PhyscoPII. On the set-up: species or system Physcomitrella patens. As for the experimental part:
as §1, §2, §3, §4, §5
5 mM MgCl2, 0.5 mM EDTA, and 10% glycerol (pH 7.6). […]
For determination the binding isotherms of plant-moss PhyscoPII protein, a strep-tagged recombinant protein (5 or 6 µM trimeric concentration) was used in system composed of 20 mM

Test [4] concerns the target ScNAGK in the presence of PpPII (Porphyra purpurea, UniProt P51254). Nature of the test: AGPR-coupled NAGK activity assay with PpPII. Format: biochemical, Synechocystis sp. PCC 6803; Porphyra purpurea. As to conditions: 4 mM ADP with 1 mM ATP. The text has this: All available structural information of PII proteins revelas that ATP and ADP bind to the same binding sites[2],[7]. When ATP and ADP are simultaneously present, they will compete for binding to the PII trimer. Since, the ATP/ADP binding site of the red algal PpPII protein is highly conserved (Fig. 1), competition between the nucleotides will occur. Since the activation of NAGK by PII is dependent on the ATP-ligated state of PII[9] and ADP inhibits PII-NAGK complex formation[9],[31], competition between ATP/ADP for PII binding can be monitored by measuring NAGK activity[31] under different ATP/ADP ratios. For this assay, we used an AGPR-coupled activity assay for NAGK[33], which allows measurement of NAGK activity in presence of ADP. Different concentrations of ADP were added to reaction mixtures containing either 1 mM or 2 mM ATP, in the absence or presence of PpPII (Fig. 8). Addition of ADP led to a monotonical and shallow decrease in the activity of ScNAGK at both fixed ATP concentration. […]
The change in NADPH absorbance was recorded at 340 nm as described previously[31],[33], in a reaction buffer composed of 50 mM potassium phosphate (pH 7.0), 50 mM KCl, 20 mM MgCl2, 0.2 mM NADPH and 0.5 mM DTT. […] The reaction was started by the addition of ScNAGK and was recorded for 10 min with a spectrophotometer (SPECORD 210 PLUS, Analytik Jena). Kinetic constants were calculated as descried above.

SMILES strings stand for the structures. Several values for one entry are separate records, joined by “and”; a condition that tells them apart may be missing. Equal entries are not always repeated. Entries after “also recorded” stand apart in the source; their conditions may differ. Where two headings read alike, the source gives them in different places.

T1 sequence (P0A3F4 whole entry): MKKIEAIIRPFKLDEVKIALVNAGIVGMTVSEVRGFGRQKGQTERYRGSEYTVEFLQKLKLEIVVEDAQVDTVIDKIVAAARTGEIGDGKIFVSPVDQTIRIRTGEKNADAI
PpPII, sequence (P51254 whole entry): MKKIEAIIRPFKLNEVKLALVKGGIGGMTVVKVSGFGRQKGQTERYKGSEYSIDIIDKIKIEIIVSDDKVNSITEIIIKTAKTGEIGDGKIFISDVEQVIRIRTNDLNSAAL
ScNAGK in the presence of PpPII, sequence (P51254 whole entry): as above

Take `Nc1ncnc2c1ncn2[C@@H]1O[C@H](COP(=O)(O)OP(=O)(O)O)[C@@H](O)[C@H]1O` [ADP]: the “N, number of calculated binding sites (one-site binding model)” value is on record as 2.7 in test [1] (in presence 2-OG (1 mM)) and 2.7 in test [1] (titrant alone, per PII trimer). Further, the Kd in test [1] (in presence 2-OG (1 mM), read-out: Average Kd (one-site binding model)) is 10.8 ± 2.8 µM; in test [1] (in presence 2-OG (1 mM), read-out: Kd1 (three-sites binding model)), 10.3 ± 10 µM; in test [1] (in presence 2-OG (1 mM), read-out: Kd2 (three-sites binding model)), 43.6 ± 4.7 µM; in test [1] (in presence 2-OG (1 mM), read-out: Kd3 (three-sites binding model)), 125.9 ± 0.9 µM; in test [1] (titrant alone, read-out: Average Kd (one-site binding model)), ~7.2 µM and 7.2 µM; in test [1] (titrant alone, read-out: Kd1 (three-sites binding model)), 3.4 ± 0.5 µM. For the same molecule, the Kd is 15.2 ± 0.7 µM in test [1] (titrant alone, read-out: Kd2 (three-sites binding model)); 132 ± 2.7 µM in test [1] (titrant alone, read-out: Kd3 (three-sites binding model)); 10.6 µM in test [2] (read-out: Kd1 (three-sites binding model), titrant alone, given in parentheses for comparison); 19.3 µM in test [2] (read-out: Kd2 (three-sites binding model), titrant alone, given in parentheses for comparison); 133 µM in test [2] (read-out: Kd3 (three-sites binding model), titrant alone, given in parentheses for comparison). Also, the “Average Kd (one-site binding model)” value in test [3] (in presence 2-OG) is given as “No binding”; in test [3] (titrant alone), “unable to detect any binding; also recorded: No binding”. Besides, the “Kd1 (three-sites binding model)” value in test [3] (in presence 2-OG) and in test [3] (titrant alone) was “No binding” each time. Further, the “Kd2 (three-sites binding model)” value in test [3] (in presence 2-OG) and in test [3] (titrant alone) was “No binding” each time. Moreover, the “Kd3 (three-sites binding model)” value in test [3] (in presence 2-OG) and in test [3] (titrant alone) was “No binding” in each case. The “ScNAGK activity in the presence of PpPII at the highest ADP/ATP ratio” value in test [4] is “as low as ScNAGK activity in the absence of PpPII”.

(Values after paper PMC5768801, “The PII signaling protein from red algae represents an evolutionary link between cyanobacterial and Chloroplastida PII proteins” (Scientific Reports, 2018).)
